Source: BigSolDB 2.1

Cc1ccc(Nc2nccc(N(C)c3ccc4c(C)n(C)nc4c3)n2)cc1S(N)(=O)=O
solubility (mole fraction)
Conditions	288.15 K	293.15 K	298.15 K	303.15 K	308.15 K	313.15 K	318.15 K	323.15 K	328.15 K
in acetonitrile	1.08e-06	3.07e-06	5.16e-06	7.86e-06	1.11e-05	1.44e-05	1.8e-05	2.21e-05	2.72e-05
in n-butanol	1.07e-05	1.46e-05	1.88e-05	2.34e-05	2.86e-05	3.42e-05	4.04e-05	4.7e-05	5.43e-05
in n-propanol	9.96e-06	1.33e-05	1.67e-05	2.09e-05	2.55e-05	3.1e-05	3.65e-05	4.39e-05	5.11e-05
